Numbers after ± are expanded uncertainties.
Experiments:
[1] = xn = mol fraction of the nth substance listed; details: 101 kPa, Liquid
[2] = refractive index (Na D-line) (dimensionless); xn = mol fraction of the nth substance listed; details: 101 kPa, Liquid

C1COCCO1 [1,4-dioxane] + ClC=C(Cl)Cl
x1 = 1
Details	mass density, 298.15 K [kg/m3]	mass density, 303.15 K [kg/m3]	mass density, 308.15 K [kg/m3]	refractive index, 298.15 K	refractive index, 303.15 K	refractive index, 308.15 K	speed of sound, 298.15 K [m/s]	viscosity, 298.15 K [mPa·s]	viscosity, 303.15 K [mPa·s]	viscosity, 308.15 K [mPa·s]
[1]	1028.6 ± 1.4	1022.9 ± 1.5	1017.2 ± 1.5	–	–	–	1345 ± 7	1.196 ± 0.038	1.102 ± 0.035	1.008 ± 0.032
[2]	–	–	–	1.4203 ± 0.0024	1.4164 ± 0.0024	1.4145 ± 0.0024	–	–	–	–

C1COCCO1 [1,4-dioxane] + CCOC(C)=O
Details	mass density, 298.15 K [kg/m3]	mass density, 303.15 K [kg/m3]	mass density, 308.15 K [kg/m3]	refractive index, 298.15 K	refractive index, 303.15 K	refractive index, 308.15 K	speed of sound, 298.15 K [m/s]	viscosity, 298.15 K [mPa·s]	viscosity, 303.15 K [mPa·s]	viscosity, 308.15 K [mPa·s]
[1], x1 = 0.1004	906.2 ± 1.2	900 ± 1.2	893.9 ± 1.3	–	–	–	1174 ± 7	0.467 ± 0.017	0.442 ± 0.017	0.417 ± 0.016
[1], x1 = 0.2001	918.8 ± 1.2	912.7 ± 1.3	906.6 ± 1.3	–	–	–	1193 ± 7	0.505 ± 0.018	0.478 ± 0.018	0.45 ± 0.017
[1], x1 = 0.3021	931.9 ± 1.2	925.8 ± 1.3	919.8 ± 1.3	–	–	–	1212 ± 7	0.543 ± 0.019	0.513 ± 0.019	0.482 ± 0.018
[1], x1 = 0.4002	944.7 ± 1.3	938.7 ± 1.3	932.7 ± 1.4	–	–	–	1231 ± 7	0.595 ± 0.021	0.56 ± 0.02	0.525 ± 0.019
[1], x1 = 0.5071	958.7 ± 1.3	952.8 ± 1.3	946.9 ± 1.4	–	–	–	1250 ± 7	0.646 ± 0.022	0.607 ± 0.021	0.568 ± 0.02
[1], x1 = 0.6001	971.1 ± 1.3	965.2 ± 1.4	959.5 ± 1.4	–	–	–	1269 ± 7	0.707 ± 0.024	0.671 ± 0.023	0.616 ± 0.021
[1], x1 = 0.6972	984.4 ± 1.3	978.6 ± 1.4	972.8 ± 1.4	–	–	–	1288 ± 7	0.791 ± 0.026	0.735 ± 0.025	0.684 ± 0.023
[1], x1 = 0.799	998.7 ± 1.4	993 ± 1.4	987.2 ± 1.5	–	–	–	1307 ± 7	0.908 ± 0.03	0.843 ± 0.028	0.778 ± 0.026
[1], x1 = 0.8991	1013.3 ± 1.4	1007.7 ± 1.4	1001.9 ± 1.5	–	–	–	1327 ± 7	1.029 ± 0.033	0.951 ± 0.031	0.873 ± 0.029
[1], x1 = 1	1028.6 ± 1.4	1022.9 ± 1.5	1017.2 ± 1.5	–	–	–	1345 ± 7	1.195 ± 0.038	1.095 ± 0.035	1.008 ± 0.032
[2], x1 = 0.1004	–	–	–	1.3753 ± 0.0024	1.3716 ± 0.0024	1.368 ± 0.0024	–	–	–	–
[2], x1 = 0.2001	–	–	–	1.3798 ± 0.0024	1.3764 ± 0.0024	1.373 ± 0.0024	–	–	–	–
[2], x1 = 0.3021	–	–	–	1.3843 ± 0.0024	1.3813 ± 0.0024	1.3782 ± 0.0024	–	–	–	–
[2], x1 = 0.4002	–	–	–	1.389 ± 0.0024	1.3862 ± 0.0024	1.3834 ± 0.0024	–	–	–	–
[2], x1 = 0.5071	–	–	–	1.3942 ± 0.0024	1.3915 ± 0.0024	1.3889 ± 0.0024	–	–	–	–
[2], x1 = 0.6001	–	–	–	1.3991 ± 0.0024	1.3964 ± 0.0024	1.3938 ± 0.0024	–	–	–	–
[2], x1 = 0.6972	–	–	–	1.4041 ± 0.0024	1.4015 ± 0.0024	1.3989 ± 0.0024	–	–	–	–
[2], x1 = 0.799	–	–	–	1.4094 ± 0.0024	1.4069 ± 0.0024	1.4044 ± 0.0024	–	–	–	–
[2], x1 = 0.8991	–	–	–	1.4148 ± 0.0024	1.4122 ± 0.0024	1.4097 ± 0.0024	–	–	–	–
[2], x1 = 1	–	–	–	1.4203 ± 0.0024	1.4164 ± 0.0024	1.4145 ± 0.0024	–	–	–	–

Clc1ccccc1Cl [1,2-dichlorobenzene] + C1COCCO1
Details	mass density, 298.15 K [kg/m3]	mass density, 303.15 K [kg/m3]	mass density, 308.15 K [kg/m3]	refractive index, 298.15 K	refractive index, 303.15 K	refractive index, 308.15 K	speed of sound, 298.15 K [m/s]	viscosity, 298.15 K [mPa·s]	viscosity, 303.15 K [mPa·s]	viscosity, 308.15 K [mPa·s]
[1], x2 = 0	1300.9 ± 1.9	1295.4 ± 1.9	1289.7 ± 2	–	–	–	1280 ± 7	1.324 ± 0.041	1.214 ± 0.038	1.105 ± 0.035
[1], x2 = 0.1025	1278.5 ± 1.8	1272.9 ± 1.9	1267.3 ± 1.9	–	–	–	1287 ± 7	1.311 ± 0.041	1.203 ± 0.038	1.095 ± 0.035
[1], x2 = 0.203	1255.8 ± 1.8	1250.1 ± 1.8	1244.5 ± 1.9	–	–	–	1293 ± 7	1.298 ± 0.041	1.191 ± 0.038	1.085 ± 0.035
[1], x2 = 0.2983	1232.9 ± 1.8	1227.3 ± 1.8	1221.6 ± 1.8	–	–	–	1299 ± 7	1.285 ± 0.04	1.181 ± 0.037	1.076 ± 0.034
[1], x2 = 0.3965	1208.5 ± 1.7	1202.8 ± 1.8	1197.1 ± 1.8	–	–	–	1305 ± 7	1.273 ± 0.04	1.169 ± 0.037	1.066 ± 0.034
[1], x2 = 0.4955	1182.5 ± 1.7	1176.9 ± 1.7	1171.2 ± 1.8	–	–	–	1312 ± 7	1.26 ± 0.04	1.158 ± 0.037	1.056 ± 0.034
[1], x2 = 0.596	1154.9 ± 1.6	1149.3 ± 1.7	1143.6 ± 1.7	–	–	–	1319 ± 7	1.247 ± 0.039	1.147 ± 0.036	1.047 ± 0.034
[1], x2 = 0.6976	1125.6 ± 1.6	1120 ± 1.6	1114.3 ± 1.7	–	–	–	1325 ± 7	1.234 ± 0.039	1.135 ± 0.036	1.037 ± 0.033
[1], x2 = 0.7992	1094.7 ± 1.5	1089.1 ± 1.6	1083.4 ± 1.6	–	–	–	1332 ± 7	1.221 ± 0.038	1.124 ± 0.036	1.027 ± 0.033
[1], x2 = 0.8971	1063.3 ± 1.5	1057.7 ± 1.5	1051.9 ± 1.6	–	–	–	1338 ± 7	1.209 ± 0.038	1.113 ± 0.035	1.018 ± 0.033
[2], x2 = 0	–	–	–	1.5499 ± 0.0024	1.5476 ± 0.0024	1.545 ± 0.0024	–	–	–	–
[2], x2 = 0.1025	–	–	–	1.5374 ± 0.0024	1.5333 ± 0.0024	1.5325 ± 0.0024	–	–	–	–
[2], x2 = 0.203	–	–	–	1.5269 ± 0.0024	1.5246 ± 0.0024	1.5224 ± 0.0024	–	–	–	–
[2], x2 = 0.2983	–	–	–	1.5171 ± 0.0024	1.5148 ± 0.0024	1.5125 ± 0.0024	–	–	–	–
[2], x2 = 0.3965	–	–	–	1.5048 ± 0.0024	1.5023 ± 0.0024	1.4998 ± 0.0024	–	–	–	–
[2], x2 = 0.4955	–	–	–	1.4924 ± 0.0024	1.4902 ± 0.0024	1.4879 ± 0.0024	–	–	–	–
[2], x2 = 0.596	–	–	–	1.4799 ± 0.0024	1.4768 ± 0.0024	1.4738 ± 0.0024	–	–	–	–
[2], x2 = 0.6976	–	–	–	1.4652 ± 0.0024	1.4628 ± 0.0024	1.4604 ± 0.0024	–	–	–	–
[2], x2 = 0.7992	–	–	–	1.4513 ± 0.0024	1.4484 ± 0.0024	1.4455 ± 0.0024	–	–	–	–
[2], x2 = 0.8971	–	–	–	1.4365 ± 0.0024	1.4337 ± 0.0024	1.4308 ± 0.0024	–	–	–	–

C1COCCO1 [1,4-dioxane] + Clc1ccccc1Cl
x1 = 1
Details	mass density, 298.15 K [kg/m3]	mass density, 303.15 K [kg/m3]	mass density, 308.15 K [kg/m3]	refractive index, 298.15 K	refractive index, 303.15 K	refractive index, 308.15 K	speed of sound, 298.15 K [m/s]	viscosity, 298.15 K [mPa·s]	viscosity, 303.15 K [mPa·s]	viscosity, 308.15 K [mPa·s]
[1]	1028.6 ± 1.4	1022.9 ± 1.5	1017.2 ± 1.5	–	–	–	1345 ± 7	1.196 ± 0.038	1.102 ± 0.035	1.008 ± 0.032
[2]	–	–	–	1.4203 ± 0.0024	1.4164 ± 0.0024	1.4145 ± 0.0024	–	–	–	–

C1COCCO1 [1,4-dioxane] + CC(=O)N(C)C
x1 = 1
Details	mass density, 298.15 K [kg/m3]	mass density, 303.15 K [kg/m3]	mass density, 308.15 K [kg/m3]	refractive index, 298.15 K	refractive index, 303.15 K	refractive index, 308.15 K	speed of sound, 298.15 K [m/s]	viscosity, 298.15 K [mPa·s]	viscosity, 303.15 K [mPa·s]	viscosity, 308.15 K [mPa·s]
[1]	1028.6 ± 5.3	1022.9 ± 5.5	1017.2 ± 5.7	–	–	–	1345 ± 7	1.196 ± 0.038	1.095 ± 0.035	1.008 ± 0.032
[2]	–	–	–	1.4203 ± 0.0024	1.4164 ± 0.0024	1.4145 ± 0.0024	–	–	–	–

C1COCCO1 [1,4-dioxane] + CCOC(=O)CC(=O)OCC
x1 = 1
Details	mass density, 298.15 K [kg/m3]	mass density, 303.15 K [kg/m3]	mass density, 308.15 K [kg/m3]	refractive index, 298.15 K	refractive index, 303.15 K	refractive index, 308.15 K	speed of sound, 298.15 K [m/s]	viscosity, 298.15 K [mPa·s]	viscosity, 303.15 K [mPa·s]	viscosity, 308.15 K [mPa·s]
[1]	1028.6 ± 1.4	1022.9 ± 1.5	1017.2 ± 1.5	–	–	–	1345 ± 7	1.196 ± 0.038	1.095 ± 0.035	1.008 ± 0.032
[2]	–	–	–	1.4203 ± 0.0024	1.4164 ± 0.0024	1.4145 ± 0.0024	–	–	–	–

Source: the NIST ThermoML archive (doi:10.1021/je049609w)
